Where “and” joins values, the source holds several entries; their conditions need not be identical. Equal entries are not always repeated. Where two headings read alike, the source gives them in different places.
Test system: Aspergillus flavus
Test: Time course study against germinating conidia of A. flavus
Type: cell-based
Conditions: for Mean No. of Colonies / activity at 2 µM / activity at 3 µM / activity at 4 µM / activity at 5 µM / activity at 7.5 µM / activity at 10 µM: 1% PDB; for activity at 2 µM / activity at 3 µM / activity at 4 µM / activity at 5 µM / activity at 7.5 µM / activity at 10 µM: read-out: Percent of Mean Control
Protocol: 1. Filamentous fungi. Filamentous fungi used in bioassays included Aspergillus flavus, A. fumigatus, A. niger, A. parasiticus and Fusarium oxysporum. The fungicidal properties of CAY-1 for the nongerminated and germinating conidia of these fungi were determined separately as described by De Lucca et al. [Med. Mycol., 36:291-298 (1998)] and De Lucca et al. [Antimicrob. Agents Chemother. 43:371-373 (1999)]. […] Two separate experiments were conducted in each medium (n=8 per medium).
A suspension of the aforementioned fungi were prepared separately in the appropriate medium. Conidia (10^4 conidia/ml) were used immediately for the nongerminated conidial assays while conidia (10^5 conidia/ml) were incubated for 7.5 hours at 30° C. to obtain germinating conidia. Serial dilutions of CAY-1 were prepared in the appropriate medium (totaling 225 μl) to which was added 25 μl of the conidial suspensions. The control consisted of 225 μl of medium and 25 μl of the conidial suspension. After mixing, the samples were incubated for 30 min (30° C.). Samples were then spread on potato dextrose agar plates which were incubated at 30° C. for 24 hours. Colonies were then enumerated.
4. Time course study. The effect of time and concentration on the activity of CAY-1 was determined against the germinating conidia of A. flavus in 1% (w/v) PBD. Bioassays were performed twice as described above (n=8).
Statistical analyses. ANOVA analyses on ranks for nonparametric data were performed for the bioassays described in this example.

CC1CCC2(OC1)OC1CC3C4CCC5CC(OC6OC(CO)C(OC7OC(CO)C(O)C(OC8OC(CO)C(O)C(OC9OC(CO)C(O)C(O)C9O)C8O)C7OC7OC(CO)C(O)C(O)C7O)C(O)C6O)C(O)CC5(C)C4CCC3(C)C1C2C (stereo not drawn) [CAY-1]
Mean No. of Colonies (2.5 min, 2.0 μM): 184.4
Mean No. of Colonies (2.5 min, 3.0 μM): 174.3
Mean No. of Colonies (2.5 min, 4.0 μM): 170.5
Mean No. of Colonies (2.5 min, 5.0 μM): 170.0
Mean No. of Colonies (2.5 min, 7.5 μM): 160.8
Mean No. of Colonies (2.5 min, 10.0 μM): 154.8
Mean No. of Colonies (5.0 min, 2.0 μM): 182.3
Mean No. of Colonies (5.0 min, 3.0 μM): 190.1
Mean No. of Colonies (5.0 min, 4.0 μM): 171.3
Mean No. of Colonies (5.0 min, 5.0 μM): 172.4
Mean No. of Colonies (5.0 min, 7.5 μM): 163.3
Mean No. of Colonies (5.0 min, 10.0 μM): 89.8
Mean No. of Colonies (10.0 min, 2.0 μM): 135.5
Mean No. of Colonies (10.0 min, 3.0 μM): 110.8
Mean No. of Colonies (10.0 min, 4.0 μM): 119.3
Mean No. of Colonies (10.0 min, 5.0 μM): 84.3
Mean No. of Colonies (10.0 min, 7.5 μM): 32.8
Mean No. of Colonies (10.0 min, 10.0 μM): 24.9
Mean No. of Colonies (15 min, 2.0 μM): 126.0
Mean No. of Colonies (15 min, 3.0 μM): 131.9
Mean No. of Colonies (15 min, 4.0 μM): 109.1
Mean No. of Colonies (15 min, 5.0 μM): 77.6
Mean No. of Colonies (15 min, 7.5 μM): 28.1
Mean No. of Colonies (15 min, 10.0 μM): 4.4
Mean No. of Colonies (20 min, 2.0 μM): 227.4
Mean No. of Colonies (20 min, 3.0 μM): 200.0
Mean No. of Colonies (20 min, 4.0 μM): 156.4
Mean No. of Colonies (20 min, 5.0 μM): 95.5
Mean No. of Colonies (20 min, 7.5 μM): 19.8
Mean No. of Colonies (20 min, 10.0 μM): 7.6
Mean No. of Colonies (30 min, 2.0 μM): 139.8
Mean No. of Colonies (30 min, 3.0 μM): 115.4
Mean No. of Colonies (30 min, 4.0 μM): 84.1
Mean No. of Colonies (30 min, 5.0 μM): 54.2
Mean No. of Colonies (30 min, 7.5 μM): 17.1
Mean No. of Colonies (30 min, 10.0 μM): 13.1
activity at 2 µM (Aspergillus flavus, 2.5 min, 2.0 μM): 110%
activity at 3 µM (Aspergillus flavus, 2.5 min, 3.0 μM): 104%
activity at 4 µM (Aspergillus flavus, 2.5 min, 4.0 μM): 102%
activity at 5 µM (Aspergillus flavus, 2.5 min, 5.0 μM): 101%
activity at 7.5 µM (Aspergillus flavus, 2.5 min, 7.5 μM): 95.8%
activity at 10 µM (Aspergillus flavus, 2.5 min, 10.0 μM): 92.3%
minimal effective concentration (Aspergillus flavus, 5 min, read-out: lowest concentration with significant lethality): 7.5 µM and 9.3 µg/mL
activity at 2 µM (Aspergillus flavus, 5 min, 2.0 μM): 89.2%
activity at 3 µM (Aspergillus flavus, 5 min, 3.0 μM): 93%
activity at 4 µM (Aspergillus flavus, 5 min, 4.0 μM): 83.8%
activity at 5 µM (Aspergillus flavus, 5 min, 5.0 μM): 84.3%
activity at 7.5 µM (Aspergillus flavus, 5 min, 7.5 μM): 79.9%
activity at 10 µM (Aspergillus flavus, 5 min, 10.0 μM): 43.8%
activity at 2 µM (Aspergillus flavus, 10 min, 2.0 μM): 102%
activity at 3 µM (Aspergillus flavus, 10 min, 3.0 μM): 83.3%

— patent US6310091A, “Fungicidal saponin, CAY-1, and isolation thereof from Capsium species fruit” (The United States of America as represented by the …, priority 2000, dated 2001)
